Results taken from the NIST ThermoML archive (doi:10.1016/j.tca.2012.01.013).
± gives the expanded uncertainty stated by the source.

Experiment: refractive index (Na D-line) (dimensionless); xn = mol fraction of the nth substance listed
Settings: 101 kPa, Liquid, Standard Abbe refractometry

COC(=O)c1ccccc1C(=O)OC [dimethyl 1,2-benzenedicarboxylate] + CCC(C)=O
refractive index (288.15 K, x1 = 0.1002): 1.40705 ± 0.00037
refractive index (288.15 K, x1 = 0.2001): 1.42733 ± 0.00037
refractive index (288.15 K, x1 = 0.3002): 1.44555 ± 0.00037
refractive index (288.15 K, x1 = 0.3997): 1.46042 ± 0.00038
refractive index (288.15 K, x1 = 0.4982): 1.47261 ± 0.00038
refractive index (288.15 K, x1 = 0.6001): 1.48425 ± 0.00038
refractive index (288.15 K, x1 = 0.6993): 1.49362 ± 0.00039
refractive index (288.15 K, x1 = 0.7993): 1.50271 ± 0.00039
refractive index (288.15 K, x1 = 0.9002): 1.51071 ± 0.0004
refractive index (288.15 K, x1 = 1): 1.51779 ± 0.0004
refractive index (293.15 K, x1 = 0.1002): 1.40471 ± 0.00037
refractive index (293.15 K, x1 = 0.2001): 1.42489 ± 0.00037
refractive index (293.15 K, x1 = 0.3002): 1.44315 ± 0.00037
refractive index (293.15 K, x1 = 0.3997): 1.45808 ± 0.00038
refractive index (293.15 K, x1 = 0.4982): 1.4703 ± 0.00038
refractive index (293.15 K, x1 = 0.6001): 1.48198 ± 0.00038
refractive index (293.15 K, x1 = 0.6993): 1.49141 ± 0.00039
refractive index (293.15 K, x1 = 0.7993): 1.50053 ± 0.00039
refractive index (293.15 K, x1 = 0.9002): 1.50855 ± 0.0004
refractive index (293.15 K, x1 = 1): 1.51565 ± 0.0004
refractive index (298.15 K, x1 = 0.1002): 1.40224 ± 0.00037
refractive index (298.15 K, x1 = 0.2001): 1.42243 ± 0.00037
refractive index (298.15 K, x1 = 0.3002): 1.44075 ± 0.00037
refractive index (298.15 K, x1 = 0.3997): 1.45576 ± 0.00038
refractive index (298.15 K, x1 = 0.4982): 1.46801 ± 0.00038
refractive index (298.15 K, x1 = 0.6001): 1.47972 ± 0.00038
refractive index (298.15 K, x1 = 0.6993): 1.48918 ± 0.00039
refractive index (298.15 K, x1 = 0.7993): 1.49835 ± 0.00039
refractive index (298.15 K, x1 = 0.9002): 1.5064 ± 0.0004
refractive index (298.15 K, x1 = 1): 1.51354 ± 0.0004
refractive index (303.15 K, x1 = 0.1002): 1.39965 ± 0.00037
refractive index (303.15 K, x1 = 0.2001): 1.41998 ± 0.00037
refractive index (303.15 K, x1 = 0.3002): 1.43839 ± 0.00037
refractive index (303.15 K, x1 = 0.3997): 1.45342 ± 0.00038
refractive index (303.15 K, x1 = 0.4982): 1.4657 ± 0.00038
refractive index (303.15 K, x1 = 0.6001): 1.47746 ± 0.00038
refractive index (303.15 K, x1 = 0.6993): 1.48696 ± 0.00039
refractive index (303.15 K, x1 = 0.7993): 1.49618 ± 0.00039
refractive index (303.15 K, x1 = 0.9002): 1.50426 ± 0.0004
refractive index (303.15 K, x1 = 1): 1.51146 ± 0.0004
refractive index (308.15 K, x1 = 0.1002): 1.39705 ± 0.00037
refractive index (308.15 K, x1 = 0.2001): 1.41752 ± 0.00037
refractive index (308.15 K, x1 = 0.3002): 1.4359 ± 0.00037
refractive index (308.15 K, x1 = 0.3997): 1.45091 ± 0.00038
refractive index (308.15 K, x1 = 0.4982): 1.46339 ± 0.00038
refractive index (308.15 K, x1 = 0.6001): 1.4752 ± 0.00038
refractive index (308.15 K, x1 = 0.6993): 1.48475 ± 0.00039
refractive index (308.15 K, x1 = 0.7993): 1.49399 ± 0.00039
refractive index (308.15 K, x1 = 0.9002): 1.50211 ± 0.0004
refractive index (308.15 K, x1 = 1): 1.50943 ± 0.0004
refractive index (313.15 K, x1 = 0.1002): 1.3943 ± 0.00037
refractive index (313.15 K, x1 = 0.2001): 1.41502 ± 0.00037
refractive index (313.15 K, x1 = 0.3002): 1.43328 ± 0.00037
refractive index (313.15 K, x1 = 0.3997): 1.44834 ± 0.00038
refractive index (313.15 K, x1 = 0.4982): 1.46101 ± 0.00038
refractive index (313.15 K, x1 = 0.6001): 1.47289 ± 0.00038
refractive index (313.15 K, x1 = 0.6993): 1.48252 ± 0.00039
refractive index (313.15 K, x1 = 0.7993): 1.49187 ± 0.00039
refractive index (313.15 K, x1 = 0.9002): 1.50006 ± 0.0004
refractive index (313.15 K, x1 = 1): 1.50736 ± 0.0004
refractive index (318.15 K, x1 = 0.1002): 1.39158 ± 0.00037
refractive index (318.15 K, x1 = 0.2001): 1.4124 ± 0.00037
refractive index (318.15 K, x1 = 0.3002): 1.43077 ± 0.00037
refractive index (318.15 K, x1 = 0.3997): 1.44591 ± 0.00038
refractive index (318.15 K, x1 = 0.4982): 1.45864 ± 0.00038
refractive index (318.15 K, x1 = 0.6001): 1.47061 ± 0.00038
refractive index (318.15 K, x1 = 0.6993): 1.48032 ± 0.00039
refractive index (318.15 K, x1 = 0.7993): 1.48973 ± 0.00039
refractive index (318.15 K, x1 = 0.9002): 1.49796 ± 0.0004
refractive index (318.15 K, x1 = 1): 1.50524 ± 0.0004
refractive index (323.15 K, x1 = 0.1002): 1.38878 ± 0.00037
refractive index (323.15 K, x1 = 0.2001): 1.40956 ± 0.00037
refractive index (323.15 K, x1 = 0.3002): 1.42768 ± 0.00037
refractive index (323.15 K, x1 = 0.3997): 1.44306 ± 0.00038
refractive index (323.15 K, x1 = 0.4982): 1.45602 ± 0.00038
refractive index (323.15 K, x1 = 0.6001): 1.4681 ± 0.00038
refractive index (323.15 K, x1 = 0.6993): 1.47795 ± 0.00039
refractive index (323.15 K, x1 = 0.7993): 1.48748 ± 0.00039
refractive index (323.15 K, x1 = 0.9002): 1.49582 ± 0.0004
refractive index (323.15 K, x1 = 1): 1.5032 ± 0.0004
